Source: patent US20150079168A1 (Keryx Biopharmaceuticals, Inc., priority 2012, published 2015)
Read-outs that look alike come from different tables or passages of the source.

How the values were obtained:
BET active surface area = format: physicochemical
Description: BET theory explains the physical adsorption of gas molecules onto a solid surface. The theory serves as the basis for the measurement of the specific surface area of a material. This theory allows the calculation of surface areas of materials in a very accurate manner and is thus capable of distinguishing differences between separate preparations of what would otherwise appear to be the same material. For example, activated carbon is a form of carbon that has been processed to make it extremely porous and thus to have a very large surface area. Activated carbon has been experimentally determined, using calculations derived from BET theory, to have a surface area of around 3000 m^2 g^−1.

[1] = tested on: patients with end-stage renal disease (ESRD) on dialysis; assay: Three-period trial of ferric citrate as phosphate binder: 52-week randomized, open-label, active control Safety Assessment Period; format: in vivo, human
Procedure: This trial was a three-period, multicenter, safety and efficacy clinical trial.
Patients were followed on their randomized assignment for safety assessments over 52 weeks.
Calcium acetate 667 mg capsules and sevelamer carbonate 800 mg tablets were used and were supplied by Keryx Biopharmaceuticals, Inc. (Keryx) for the duration of the trial.
Serum phosphorus and calcium were checked at Visit 5 (Week 1), and every two weeks during the first 12 weeks after Visit 4 (Randomization Visit), and monthly for the rest of the Safety Assessment Period. During the Efficacy Assessment Period, serum phosphorus and calcium were drawn weekly. These values guided study drug administration. While on study drug, the use of other phosphate binders was not permitted. […] The titration of calcium acetate and sevelamer carbonate throughout the 52-week Safety Assessment Period were according to the current package inserts for these agents and/or at the discretion of the site PI.
Patients took study drug orally with or within one hour of meals or snacks. […] The PI or designee at each site dispensed the study drug to the patient and instructed the patient on how to administer it. It was recognized that some patients required a different distribution in pills in a given day due to snacks or missed meals.
Serum phosphorus and calcium were performed at Screening (Visit 0); weekly during the Washout Period after Visit 1 (Week −2); at Visit 4 (Randomization Visit); at Visits 5 (Week 1), 6 (Week 2), 7 (Week 4), 8 (Week 6), 9 (Week 8), 10 (Week 10), 11 (Week 12), 12 (Week 16), 13 (Week 20), 14 (Week 24), 15 (Week 28), 16 (Week 32), 17 (Week 36), 18 (Week 40), 19 (Week 44), 20 (Week 48), and 21 (Week 52) of the 52-week Safety Assessment Period; and at Visits 22 (Week 53), 23 (Week 54), 24 (Week 55) and 25 (Week 56) of the Efficacy Assessment Period. […]
The efficacy analyses were based on Full Analysis (FA) population that consisted of all patients who took at least one dose of study medication and provided baseline and at least one post-baseline efficacy assessment. The safety analyses were based on safety population that was consistent of all patients who took at least one dose of study medication.
There were two unique and distinct baseline assessments. The baseline for the Safety Assessment Period was the Randomization Visit (Visit 4) and was defined as “Week-0-baseline.” The baseline for the Efficacy Assessment Period was the last visit of the Safety Assessment Period (Visit 21. Week 52) and was defined as “study-baseline.”

[2] = Week 12, ANCOVA, Day-0 baseline covariate

ferric citrate [Batch No. 35102]
BET Active Surface Area (BET active surface area): 30.6 m^2/g

ferric citrate [Batch No. 35106]
BET Active Surface Area (BET active surface area): 28.5 m^2/g

ferric citrate [STM-134-1]
BET Active Surface Area (BET active surface area; Table 1, unit not given): 16.17

ferric citrate [Batch No. 35105]
BET Active Surface Area (BET active surface area): 31.5 m^2/g

sevelamer carbonate
Calcium, Mean (SD) ([1]; Baseline): 9.056 (0.7291) MG/DL
Calcium, Median ([1]; Baseline): 9.150 mg/dL
Product Of Calcium And Phosphorus, Mean (SD) ([1]; Baseline): 68.0872 (16.29)
Product Of Calcium And Phosphorus, Median ([1]; Baseline): 66.2700
Phosphorus, Mean (SD) ([1]; Baseline (Table 12)): 7.51 (1.633) MG/DL
Phosphorus, Median ([1]; Baseline (Table 12)): 7.40 mg/dL
Calcium, Change from Baseline, Mean (SD) ([1]; Week 12): 0.175 (0.7509) MG/DL
Calcium, Change from Baseline, Median ([1]; Week 12): 0.100 mg/dL
Calcium, Mean (SD) ([1]; Week 12): 9.231 (0.7210) MG/DL
Calcium, Median ([1]; Week 12): 9.400 mg/dL
Product Of Calcium And Phosphorus, Change from Baseline, Mean (SD) ([1]; Week 12): −20.0621 (19.17)
Product Of Calcium And Phosphorus, Change from Baseline, Median ([1]; Week 12): −19.8500
Product Of Calcium And Phosphorus, Mean (SD) ([1]; Week 12): 48.0251 (14.37)
Product Of Calcium And Phosphorus, Median ([1]; Week 12): 46.2800
Phosphorus, Change from Baseline, Mean (SD) ([1]; Week 12 (Table 12)): −2.28 (2.169) MG/DL
Phosphorus, Change from Baseline, Median ([1]; Week 12 (Table 12)): -2.45 mg/dL
Phosphorus, Mean (SD) ([1]; Week 12 (Table 12)): 5.23 (1.713) MG/DL
Phosphorus, Median ([1]; Week 12 (Table 12)): 5.00 mg/dL
Calcium, LS Mean (SE) [1, 2]: 9.15 (0.08) MG/DL
Product Of Calcium And Phosphorus, LS Mean (SE) [1, 2]: 47.52 (1.50)
Phosphorus, LS Mean (SE) ([1]; Week 12, ANCOVA, Day-0 baseline covariate (Table 12)): 5.22 (0.17) MG/DL

ferric citrate [STM-182-1]
BET Active Surface Area (BET active surface area; Table 1, unit not given): 19.85

ferric citrate [Batch No. 35103]
BET Active Surface Area (BET active surface area): 29.1 m^2/g

ferric citrate [RFS-12-1]
BET Active Surface Area (BET active surface area): 0.61 m^2/g
BET Active Surface Area (BET active surface area; Table 1, unit not given): 0.61
